According to patent publication US8324390B2, “Tetrazole-substituted anthranilamides as pesticides” (Bayer CropScience AG, priority 2008, dated 2012):
Where two headings read alike, the source gives them in different places.

What was measured:
[1] = log P determination by HPLC (EEC Directive 79/831 Annex V.A8); assay type: physicochemical
Procedure: The measurements were carried out using an Agilent 1100 LC system with a 50*4.6 Zorbax Eclipse C18 1.8 μm column (oven temperature 55° C., flow rate 2.0 ml/min).
The following mobile phases were used:
Mobile phase A: acetonitrile+1000 μl of formic acid/l
Mobile phase B: Millipore water+900 μl of formic acid/l

[2] = tested on: caterpillars of the armyworm (Spodoptera frugiperda); experiment: Spodoptera frugiperda test (SPODFR spray treatment); assay type: in vivo; conditions: Spodoptera frugiperda, in Zea mays, foliar, read-out: effect in % (caterpillars killed)
From the text: Solvent: 78.0 parts by weight of acetone

[3] = tested on: larvae of the mustard beetle (Phaedon cochleariae); experiment: Phaedon test (PHAECO spray treatment); conditions: for pest or weed control at 100 g/ha: Phaedon cochleariae, in Brassica rapa, foliar, read-out: effect in % (beetle larvae killed)
[4] = reversed-phase HPLC, Zorbax Eclipse C18 column, by HPLC according to EEC Directive 79/831 Annex V.A8, read-out: log P

Row | SMILES | chromatographic logP ([1]; HPLC, acetonitrile/water with formic acid, read-out: log P) | pest or weed control at 100 g/ha [2] | pest or weed control at 100 g/ha [3] | chromatographic logP ([1]; by HPLC according to EEC Directive 79/831 Annex V.A8, read-out: log P) | chromatographic logP [1, 4] | chromatographic logP ([1]; log P) | Kill in %/7 days ([3]; 4 g/ha, 7 days)
1 | Cc1cc(Cl)cc(C(=O)NC(C)C)c1NC(=O)c1cc(Cn2nnc(C(F)(F)C(F)(F)C(F)(F)F)n2)nn1-c1ncccc1Cl [Example 1, 2-(3-chloropyridin-2-yl)-5-(5-heptafluoropropyltetrazol-2-ylmethyl)-2H-pyrazole-3-carboxylic acid (4-chloro-2-isopropylcarbamoyl-6-methylphenyl)amide] | 4.23 | ≥ 80% | ≥ 80% |  |  |  | 
2 | Cc1cc(Cl)cc(C(=O)NC2CC2)c1NC(=O)c1cc(Cn2nnc(C(F)(F)C(F)(F)C(F)(F)F)n2)nn1-c1ncccc1Cl [Example 4] |  | ≥ 80% | ≥ 80% | 3.96 |  |  | 
3 | CNC(=O)c1cc(C#N)cc(C)c1NC(=O)c1cc(Cn2nnc(C(F)(F)F)n2)nn1-c1ncccc1Cl [Example 12] |  | ≥ 80% | ≥ 80% |  | 2.66 |  | 
4 | CSC[C@H](C)NC(=O)c1cc(C#N)cc(C)c1NC(=O)c1cc(Cn2nnc(C(F)(F)F)n2)nn1-c1ncccc1Cl [Example 14] |  | ≥ 80% | ≥ 80% |  |  | 3.28 | 
5 | Cc1cc(Cl)cc(C(=O)NC2CC2)c1NC(=O)c1cc(Cn2nnc(C(F)(F)F)n2)nn1-c1ncccc1Cl [Example 25] |  | ≥ 80% | ≥ 80% |  |  | 3.23 | 
6 | CNC(=O)c1cc(Br)cc(C)c1NC(=O)c1cc(Cn2nnc(C(F)(F)F)n2)nn1-c1ncccc1Cl [Example 28] |  | ≥ 80% | ≥ 80% |  |  | 3.05 | 
7 | CCNC(=O)c1cc(Cl)cc(C)c1NC(=O)c1cc(Cn2nnc(C(F)(F)F)n2)nn1-c1ncccc1Cl [Example 33] |  | ≥ 80% | ≥ 80% |  |  | 3.23 | 
8 | CCNC(=O)c1cc(Br)cc(C)c1NC(=O)c1cc(Cn2nnc(C(F)(F)F)n2)nn1-c1ncccc1Cl [Example 34] |  | ≥ 80% | ≥ 80% |  |  | 3.32 | 
9 | CCC(C)NC(=O)c1cc(Cl)cc(C)c1NC(=O)c1cc(Cn2nnc(C(F)(F)F)n2)nn1-c1ncccc1Cl (centres unmarked) [Example 36] |  | ≥ 80% | ≥ 80% |  |  | 3.74 | 
10 | Cc1cc(Cl)cc(C(=O)NCC(C)C)c1NC(=O)c1cc(Cn2nnc(C(F)(F)F)n2)nn1-c1ncccc1Cl [Example 37] |  | ≥ 80% | ≥ 80% |  |  | 3.78 | 
11 | Cc1cc(C#N)cc(C(=O)NCC(C)C)c1NC(=O)c1cc(Cn2nnc(C(F)(F)F)n2)nn1-c1ncccc1Cl [Example 38] |  | ≥ 80% | ≥ 80% |  |  | 3.37 | 
12 | Cc1cc(Br)cc(C(=O)NC(C)C)c1NC(=O)c1cc(Cn2nnc(C(F)(F)F)n2)nn1-c1ncccc1Cl [Example 39] |  | ≥ 80% | ≥ 80% |  |  | 3.57 | 
13 | Cc1cc(F)cc(C(=O)NC(C)C)c1NC(=O)c1cc(Cn2nnc(C(F)(F)F)n2)nn1-c1ncccc1Cl [Example 40] |  | ≥ 80% | ≥ 80% |  |  | 3.11 | 
14 | Cc1cc(Cl)cc(C(=O)NCC2CC2)c1NC(=O)c1cc(Cn2nnc(C(F)(F)F)n2)nn1-c1ncccc1Cl [Example 46] |  | ≥ 80% | ≥ 80% |  |  | 3.53 | 
15 | Cc1cc(Br)cc(C(=O)NCC2CC2)c1NC(=O)c1cc(Cn2nnc(C(F)(F)F)n2)nn1-c1ncccc1Cl [Example 47] |  | ≥ 80% | ≥ 80% |  |  | 3.88 | 
16 | Cc1cc(F)cc(C(=O)NCC2CC2)c1NC(=O)c1cc(Cn2nnc(C(F)(F)F)n2)nn1-c1ncccc1Cl [Example 48] |  | ≥ 80% | ≥ 80% |  |  | 3.18 | 
17 | Cc1cc(Cl)cc(C(=O)NC2CCC2)c1NC(=O)c1cc(Cn2nnc(C(F)(F)F)n2)nn1-c1ncccc1Cl [Example 49] |  | ≥ 80% | ≥ 80% |  |  | 3.6 | 
18 | Cc1cc(Br)cc(C(=O)NC2CCC2)c1NC(=O)c1cc(Cn2nnc(C(F)(F)F)n2)nn1-c1ncccc1Cl [Example 50] |  | ≥ 80% | ≥ 80% |  |  | 3.71 | 
19 | CC(NC(=O)c1cc(Cl)cc(Cl)c1NC(=O)c1cc(Cn2nnc(C(F)(F)F)n2)nn1-c1ncccc1Cl)C1CC1 (centres unmarked) [Example 56] |  | ≥ 80% | ≥ 80% |  |  | 3.71 | 
20 | O=C(NC1CC1)c1cc(Cl)cc(Cl)c1NC(=O)c1cc(Cn2nnc(C(F)(F)F)n2)nn1-c1ncccc1Cl [Example 57] |  | ≥ 80% | ≥ 80% |  |  | 3.18 | 
21 | CCNC(=O)c1cc(Cl)cc(Cl)c1NC(=O)c1cc(Cn2nnc(C(F)(F)F)n2)nn1-c1ncccc1Cl [Example 58] |  | ≥ 80% | ≥ 80% |  |  | 3.17 | 

Row | SMILES | chromatographic logP ([1]; HPLC, acetonitrile/water with formic acid, read-out: log P) | pest or weed control at 100 g/ha [2] | pest or weed control at 100 g/ha [3] | chromatographic logP ([1]; by HPLC according to EEC Directive 79/831 Annex V.A8, read-out: log P) | chromatographic logP [1, 4] | chromatographic logP ([1]; log P) | Kill in %/7 days ([3]; 4 g/ha, 7 days)
22 | CC(C)NC(=O)c1cc(Cl)cc(Cl)c1NC(=O)c1cc(Cn2nnc(C(F)(F)F)n2)nn1-c1ncccc1Cl [Example 61] |  | ≥ 80% | ≥ 80% |  |  | 3.41 | 
23 | O=C(NC1CCC1)c1cc(Cl)cc(Cl)c1NC(=O)c1cc(Cn2nnc(C(F)(F)F)n2)nn1-c1ncccc1Cl [Example 62] |  | ≥ 80% | ≥ 80% |  |  | 3.51 | 
24 | O=C(NCC1CC1)c1cc(Cl)cc(Cl)c1NC(=O)c1cc(Cn2nnc(C(F)(F)F)n2)nn1-c1ncccc1Cl [Example 63] |  | ≥ 80% | ≥ 80% |  |  | 3.47 | 
25 | CCNC(=O)c1cc(I)cc(C)c1NC(=O)c1cc(Cn2nnc(C(F)(F)F)n2)nn1-c1ncccc1Cl [Example 66] |  | ≥ 80% | ≥ 80% |  |  | 3.47 | 
26 | Cc1cc(I)cc(C(=O)NC(C)C2CC2)c1NC(=O)c1cc(Cn2nnc(C(F)(F)F)n2)nn1-c1ncccc1Cl (centres unmarked) [Example 68] |  | ≥ 80% | ≥ 80% |  |  | 4.01 | 
27 | Cc1cc(I)cc(C(=O)NC2CC2)c1NC(=O)c1cc(Cn2nnc(C(F)(F)F)n2)nn1-c1ncccc1Cl [Example 69] |  | ≥ 80% | ≥ 80% |  |  | 3.46 | 
28 | Cc1cc(I)cc(C(=O)NC(C)C)c1NC(=O)c1cc(Cn2nnc(C(F)(F)F)n2)nn1-c1ncccc1Cl [Example 71] |  | ≥ 80% | ≥ 80% |  |  | 3.73 | 
29 | Cc1cc(I)cc(C(=O)NC2CCC2)c1NC(=O)c1cc(Cn2nnc(C(F)(F)F)n2)nn1-c1ncccc1Cl [Example 72] |  |  | ≥ 80% |  |  | 3.85 | 
30 | Cc1cc(I)cc(C(=O)NCC2CC2)c1NC(=O)c1cc(Cn2nnc(C(F)(F)F)n2)nn1-c1ncccc1Cl [Example 73] |  | ≥ 80% | ≥ 80% |  |  | 3.78 | 
31 | Cc1cc(C#N)cc(C(=O)NC(C)CC(F)(F)F)c1NC(=O)c1cc(Cn2nnc(C(F)(F)F)n2)nn1-c1ncccc1Cl (centres unmarked) [Example 75] |  |  | ≥ 80% |  |  | 3.38 | 
32 | Cc1cc(C)c(NC(=O)c2cc(Cn3nnc(C(F)(F)F)n3)nn2-c2ncccc2Cl)c(C(=O)NC2CCC2)c1 [Example 84] |  | ≥ 80% | ≥ 80% |  |  | 3.42 | 
33 | Cc1cc(C)c(NC(=O)c2cc(Cn3nnc(C(F)(F)F)n3)nn2-c2ncccc2Cl)c(C(=O)NCC#N)c1 [Example 85] |  | ≥ 80% | ≥ 80% |  |  | 2.83 | 
34 | Cc1cc(C#N)cc(C(=O)NC(C2CC2)C2CC2)c1NC(=O)c1cc(Cn2nnc(C(F)(F)F)n2)nn1-c1ncccc1Cl [Example 87] |  | ≥ 80% | ≥ 80% |  |  | 3.65 | 
35 | Cc1cc(C#N)cc(C(=O)NCC2CC2(Cl)Cl)c1NC(=O)c1cc(Cn2nnc(C(F)(F)F)n2)nn1-c1ncccc1Cl (centres unmarked) [Example 88] |  | ≥ 80% | ≥ 80% |  |  | 3.5 | 
36 | Cc1cc(C#N)cc(C(=O)NCC2CCCCC2)c1NC(=O)c1cc(Cn2nnc(C(F)(F)F)n2)nn1-c1ncccc1Cl [Example 93] |  |  | ≥ 80% |  |  | 3.96 | 
37 | Cc1cc(C#N)cc(C(=O)NCc2ccoc2)c1NC(=O)c1cc(Cn2nnc(C(F)(F)F)n2)nn1-c1ncccc1Cl [Example 99] |  | ≥ 80% | ≥ 80% |  |  | 3.09 | 
38 | Cc1cc(C#N)cc(C(=O)NC(C)(C)C)c1NC(=O)c1cc(Cn2nnc(C(C)(C)C)n2)nn1-c1ncccc1Cl [Example 100] |  | ≥ 80% | ≥ 80% |  |  | 3.44 | 
39 | Cc1cc(C#N)cc(C(=O)NC(C)C2CCC2)c1NC(=O)c1cc(Cn2nnnc2C(F)(F)F)nn1-c1ncccc1Cl (centres unmarked) [Example 194] |  |  | ≥ 80% |  |  | 3.25 | 
40 | CCOC1CCC(NC(=O)c2cc(C#N)cc(C)c2NC(=O)c2cc(Cn3nnc(C(F)(F)F)n3)nn2-c2ncccc2Cl)CC1 (centres unmarked) [Example 344] |  |  | ≥ 80% |  | 3.6 |  | 
41 | CNC(=O)c1cc(Cl)cc(C)c1NC(=O)c1cc(Cn2nnnc2-c2ccc(C(F)(F)F)cc2)nn1-c1ncccc1Cl [drawing 598] |  |  |  |  |  |  | 0%
